In the NIST ThermoML archive (doi:10.1016/j.fluid.2013.06.007):
± gives the expanded uncertainty stated by the source.

Columns and labels:
[1] = 298.2 K; 101.33 kPa; Liquid; Vibrating tube method
[2] = refractive index (Na D-line) (dimensionless); details: 298.2 K; 101.33 kPa; Liquid; Standard Abbe refractometry

Row | SMILES | mass density [1] | refractive index [2]
1 | CCCCCCCO [heptan-1-ol] | 818.915 ± 0.63 kg/m3 | 1.4224 ± 0.0004
2 | CCC(C)O (stereo not drawn) [butan-2-ol] | 802.362 ± 0.63 kg/m3 | 1.394 ± 0.0004
3 | CCCCO [butan-1-ol] | 805.877 ± 0.63 kg/m3 | 1.3972 ± 0.0004
4 | CC(O)C(=O)O (stereo not drawn) [2-hydroxypropanoic acid] | 1199.91 ± 87 kg/m3 | 1.4243 ± 0.003

Other lines, results leading:

Row | mass density [1] | refractive index [2] | SMILES
5 | 811.288 ± 0.63 kg/m3 | 1.4078 ± 0.0004 | CCCCCO [pentan-1-ol]
6 | 815.167 ± 0.83 kg/m3 | 1.416 ± 0.0005 | CCCCCCO [hexan-1-ol]
7 | – | 1.3325 ± 0.0004 | O [water]
